Legend:
Conditions in all cases: effective concentration of copper cations
[1] = system: Synechococcus leopoliensis
Mycrocystis incerta = system: Mycrocystis incerta
Raphidocelis subcapitata = system: Raphidocelis subcapitata
Chlorella kessleri = system: Chlorella kessleri
Scenedesmus quadricauda = system: Scenedesmus quadricauda
Anabaena sp. = system: Anabaena sp.

For `O=S(=O)([O-])[O-].[Cu+2]` [copper sulfate], the “EC50 (mg/l Cu(II))” value [1] was 1.26 mg/l Cu(II), the “EC50 (mg/l Cu(II))” value (Mycrocystis incerta) was 1.26 mg/l Cu(II) and the “EC50 (mg/l Cu(II))” value (Raphidocelis subcapitata) was 1.27 mg/l Cu(II). For the same compound, the “EC50 (mg/l Cu(II))” value (Chlorella kessleri) was 1.14 mg/l Cu(II), the “EC50 (mg/l Cu(II))” value (Scenedesmus quadricauda) was 1.15 mg/l Cu(II) and the “EC50 (mg/l Cu(II))” value (Anabaena sp.) was 0.50 mg/l Cu(II).
